This is an account of results in US12644133B2, “Methods and compositions to increase somatic cell nuclear transfer (SCNT) efficiency by removing histone H3-lysine trimethylation” (The Children's Medical Center Corporation, priority 2014, dated 2026).

pIC50: −log10 of the molar value. Where “and” joins values, the source holds several entries; their conditions need not be identical. Equal entries are not always repeated. Where only a bound is given, the exact number is not on record here.

Test [1] deals with SetDB1 H3K9me3 HMTase. The note with it: cited from earlier work.
Test [2] has as its system SCNT blastocysts. In words: ntESC derivation from SCNT blastocysts. It counts as cell-based, mouse. How it is done:
Blastocysts were denuded by acid tyrode treatment and cultured on mitomycin treated MEF feeder cells and in DMEM supplemented with 5% FBS, 10% KnockOut serum replacement (Life Technologies #10828-028), 0.1 mM non-essential amino acids, 2 mM GlutaMAX, 50 U/ml penicillin-streptomycin, 0.1 mM 2-mercaptoethanol and 2000 U leukemia inhibitory factor (LIF, Millipore #ESG1107) at 37° C. 5% CO2. Four to five days later, outgrowths from attached embryos were dissociated with 0.25% trypsin and passaged all onto new feeder cells. On the following day, the medium was replaced with N2B27-LIF media [DMEM/F12 (Life Technologies #10565-042) supplemented with 0.1 mM non-essential amino acids, 2 mM GlutaMAX, 50 U/ml penicillin-streptomycin, 0.1 mM 2-mercaptoethanol, 0.5×N2 supplement (Life technologies #17502-048), 0.5× B27 supplement (Life technologies #17504-044), […] CHIR99021 (STEMGENT #04-0004), 0.5 μM PD0325901 (STEMGENT #04-0006) and 1000 U LIF]. Five days later, expanded cells were reseeded as established ntESC.

The subject of test [3] is SCNT embryos. Kind of test: Preimplantation development of SCNT embryos cultured in vitro. The class given is cell-based, mouse. To be noted: cumulus donor cells (BDF1, female), TSA treatment 15 nM for 8 h, water or mRNA 1800 ng/μl injected. The text has this: C57BL/6J female mice were mated with DBA/2J males to produce B6D2F1/J (BDF1) mice. BDF1 and CD-1 (ICR) adult females were used for the collection of recipient oocytes and embryo transfer recipients, respectively. BDF1 mice were used for the collection of donor somatic cells for the analyses of development. (C57BL/6×CAST/EiJ) F1 mice were used for the collection of donor cells for RNA-seq. E13.5 embryos harboring GOF18 delta-PE (Jackson Laboratory, 004654: Tg(Pou5f1-EGFP)2Mnn, C57BL/6J background) were used for the isolation of mouse embryonic fibroblasts (MEF). All animal experiments were approved by the Institutional Animal Care and Use Committee of Harvard Medical School.
Cumulus cells were collected from adult BDF1 females through superovulation by injecting 7.5 IU of pregnant mare serum gonadotropin (PMSG; Harbor) and 7.5 IU of human chorionic gonadotropin (hCG; Millipore). Fifteen hours after the hCG injection, cumulus-oocyte complexes (COCs) were collected from the oviducts and briefly treated with Hepes-buffered potassium simplex-optimized medium (KSOM) containing 300 U/ml bovine testicular hyaluronidase (Calbiochem #385931) to obtain dissociated cumulus cells. Sertoli cells were collected from testes of 3- to 5-day-old BDF1 male mice as described (Matoba et al., 2011). Testicular masses were incubated in PBS containing 0.1 mg/ml collagenase (Life Technologies #17104-019) for 30 min at 37° C. followed by 5 min treatment with 0.25% Trypsine with 1 mM EDTA (Life Technologies #25200-056) at room temperature. After washing for four times with PBS containing 3 mg/ml bovine serum albumin, the dissociated cells were suspended in Hepes-KSOM medium.
Primary mouse embryonic fibroblast (MEF) cells were established from GOF18 delta-PE mouse embryos at 13.5 dpc. After removal of head and all organs, minced tissue from remaining corpus was dissociated in 500 μl of 0.25% Trypsine with 1 mM EDTA for 10 min at 37° C. Cell suspension was diluted with equal amount of DMEM (Life Technologies #11995-073) containing 10% FBS and Penicillin/Streptomycin (Life Technologies #15140-022) and pipetted up and down for 20 times. The cell suspension was diluted with fresh medium and plated onto 100 mm dishes and cultured at 37° C. Two days later, MEF cells were harvested and frozen. Frozen stocks of MEF cells were thawed and used for experiments after one passage.
siRNAs against mouse Suv39h1 (Life Technologies #s74607), Suv39h2 (Life Technologies #s82300) and Setdb1 (Life Technologies #s96549) were diluted in nuclease free water at 50 μM stock solutions. siRNAs were introduced to MEFs with Lipofectamine RNAi Max (Life technologies #35050-061) following manufacturer's protocol. Briefly, 1×10^5 MEF cells were seeded onto 24-well plate (day 0; see FIG. 5A). Twenty-four hours later, […] siRNAs were transfected into MEF cells using Lipofectamine RNAi Max (day 1). Twenty-four hours after the first transfection, the culture media was changed to fresh M293T media [DMEM supplemented with 10% FBS, 0.1 mM non-essential amino acids (Life technologies #11140-050), 2 mM GlutaMAX (Life technologies #35050-079), 50 U/ml penicillin-streptomycin and 0.1 mM 2-mercaptoethanol (Life technologies #21985-023)] (day 2). On day 3, MEF cells were reseeded onto 24-well plates at the density of 1×10^5 cells. Then transfection was repeated once as described above (day 4). Forty-eight hours after the second transfection (day 6), MEF cells were used for immunostaining, RT-qPCR or SCNT.
Somatic cell nuclear transfer was carried out as described previously (Matoba et al., 2011). Briefly, recipient MII oocytes were collected from superovulated adult BDF1 females by brief treatment with 300 U/ml bovine testicular hyaluronidase (Calbiochem). Isolated MII oocytes were enucleated in Hepes-buffered KSOM medium containing 7.5 μg/ml of cytochalasin B (Calbiochem #250233). […]

The target in test [4] is Suv39h2 (Homo sapiens, UniProt Q9H5I1). To be noted: cited from earlier work.
[5] abbreviates: cumulus donor cells (BDF1, female), TSA treatment 15 nM for 8 h, water or mRNA 1800 ng/μl injected.

Sequence of Suv39h2 (Q9H5I1 whole entry, species assumed): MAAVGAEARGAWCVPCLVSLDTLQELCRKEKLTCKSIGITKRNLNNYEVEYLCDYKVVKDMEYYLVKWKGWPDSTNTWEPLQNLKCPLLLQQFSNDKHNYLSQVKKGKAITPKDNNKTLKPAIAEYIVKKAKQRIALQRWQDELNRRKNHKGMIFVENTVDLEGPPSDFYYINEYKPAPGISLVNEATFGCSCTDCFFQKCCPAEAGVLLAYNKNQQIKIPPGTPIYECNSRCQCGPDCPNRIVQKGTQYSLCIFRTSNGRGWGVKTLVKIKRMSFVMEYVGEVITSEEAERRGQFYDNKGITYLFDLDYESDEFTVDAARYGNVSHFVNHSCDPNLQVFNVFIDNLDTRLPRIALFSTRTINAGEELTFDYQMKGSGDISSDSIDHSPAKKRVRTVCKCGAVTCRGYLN

Regarding `Nc1nccc2c1ncn2[C@@H]1C=C(CO)[C@@H](O)[C@H]1O` [DZNep, 3-Deazaneplanocin A], the “levels of H3K27me3 and H3K9me3 (in words)” value in test [1] is “reduced levels of both H3K27me3 and H3K9me3”.

Take `CC(/C=C/C(=O)NO)=C\[C@@H](C)C(=O)c1ccc(N(C)C)cc1` [TSA, trichostatin A, reference compound]: the “efficiency of attachment or ntESC derivation per blastocyst, compared to control (in words)” value in test [2] (SCNT blastocysts from cumulus donor cells) is listed as “did not show any significant difference”. Moreover, in test [2] (setting [5]), the “No. of blastocyst attached to feeder cells” value stood at 14, the “No. of established ntESC lines” value stood at 8, the “blastocyst attached to feeder cells (% per blast)” value is recorded as 70.0% and the “established ntESC lines (% per MII oocyte)” value is recorded as “(18.2) %”. For the same molecule, the “established ntESC lines (% per blast)” value in test [2] (setting [5]) was “(40.0) %”. In addition, in test [3], the “% 4-cell per 2-cell ± SD” value is given as 72.1 ± 10.9 %; the “% blast per 2-cell ± SD” value is 53.8% and 53.8 ± 6.2 %; the “% cleaved per 1-cell ± SD” value turned out to be 98.0 ± 3.4%; the “% morula per 2-cell ± SD” value came to 60.8 ± 6.8 %. Also, in test [3] (ntESC derivation experiment), the No. of blastocyst is on record as 20 and the “blastocyst (% per 1-cell)” value worked out at 51.3%.

Broadly, the pIC50 is the negative decadic logarithm of the IC50, by convention in mol/L. Turning to `COc1cc2c(NC3CCN(C(C)C)CC3)nc(C3CCCCC3)nc2cc1OCCCN1CCCC1` [UNC0638, 2-Cyclohexyl-N-(1-isopropylpiperidin-4-yl)-6-methoxy-7-(3-(pyrrolidin-1-yl)propoxy)quinazolin-4-amine], the pIC50 in test [4] was less than 5.00.
